This assay deals with T1, GCaMP5-expressing T. gondii.
T1 construct: whole extracellular parasites expressing GCaMP5 Ca2+ sensor
More on the design: species or system GCaMP5-expressing Toxoplasma gondii, extracellular; GCaMP5 fluorescence (cytosolic Ca2+) after 100 uM zaprinast in compound-pretreated extracellular parasites, background-subtracted, relative to zaprinast alone. To be noted: 0.23 h; for fold change in fluorescence relative to zaprinast alone: 100 uM zaprinast stimulation, 10 min pretreatment, mean of two replicates. In outline: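 Read-out is GCaMP5 calcium fluorescence (ex 485/em 525 nm) taken 4 min after 100 μM zaprinast at 37 °C, following 10 min compound pretreatment at 10 μM in duplicate biological replicates. Values are basal-subtracted fold change versus zaprinast-only controls; parasites held extracellular in Ringer's solution.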

Turning to `O=C(Nc1cccc(-c2nn3ncccc3c2-c2ccnc(Nc3cccnc3)n2)c1)c1c(F)cccc1F` [GSK312879A], the “fold change in fluorescence relative to zaprinast alone” value was determined as 1.048. Still for that read-out and setting: in the case of `Fc1ccc(-c2ncn(C3CCNCC3)c2-c2ccnc(Oc3ccc(-c4ccccc4)cc3)n2)cc1` [SB-245391] it was 1.215.

As to `NC(=O)c1sc(-n2cnc3ccccc32)cc1OCc1ccccc1Br` [GSK1023156A], the “fold change in fluorescence relative to zaprinast alone” value turned out to be 0.8843.

Take `CNC(=O)c1cc(-c2ccc(F)cc2)cc(-c2ccc(S(=O)(=O)N3CCCC3)cc2)c1N` [GSK635416A]: the “fold change in fluorescence relative to zaprinast alone” value was found to be 1.111. Still for that read-out and setting: the same measure for `COc1cccc(/C=N/Nc2ncnc3c2cnn3-c2cccc(OC)c2)c1` [GW829874X]: 1.214. Same read-out and setting: the same measure for `c1ccc(Oc2ccc(Nc3ccnc4ccc(-c5ccccn5)cc34)cc2)cc1` [GW407034X]: 0.6551.

`CN(c1ccc(NC(=O)NCCN2CCOCC2)cc1)c1ccnc(Nc2ccc(CS(C)(=O)=O)cc2)n1` [GW830365A]: the “fold change in fluorescence relative to zaprinast alone” value was found to be 1.217.

For `CN1CCC(n2cnc(-c3ccc(F)cc3)c2-c2ccnc(Nc3ccccc3)n2)CC1` [SB-236687], the “fold change in fluorescence relative to zaprinast alone” value is 1.382. In the case of `FC(F)(F)c1ccccc1-c1cc(-c2cn[nH]c2-c2ccccn2)ccn1` [GW679396X], the “fold change in fluorescence relative to zaprinast alone” value was 0.8259. On the same count and under the same terms, the same measure for `COc1cccc(CC(=O)N2CCc3cc(-c4cn(C)c5ncnc(N)c45)ccc32)c1` [GSK2608899A]: 0.9364. Turning to `NS(=O)(=O)c1ccc(Nc2ncc(-c3ccccc3)o2)cc1` [GW572399X], for the setting “10 µM”, the “% of control remaining” value stood at 1.225. As for `COC(=O)Nc1nc2ccc(S(=O)(=O)c3ccc(NC(=O)Nc4cc(C(F)(F)F)ccc4F)cc3)cc2[nH]1` [GW680908A], the “fold change in fluorescence relative to zaprinast alone” value stood at 1.018. On the same count and under the same terms, in the case of `CN1CCC(C(=O)Nc2n[nH]c3nnc(-c4ccccc4)cc23)CC1` [SB-678557-A] it was 1.083; in that of `CN(C(=O)c1ccc(-c2cc(-c3cn[nH]c3-c3ccccn3)ccn2)cc1)C1CCOCC1` [GW810083X], 1.114. The same measure, in the same setting: the same measure for `CC(C)Oc1ccc2c(-c3ccnc(Nc4ccc(N5CCN(C)CC5)cc4)n3)cnn2n1` [GW696155X]: 0.6015; for `CCc1cccc(CC)c1/C=C/c1cncc(C(=O)NC)c1` [GW450241X]: 1.076; for `COc1ccc(C2=C(N3CCc4ccccc43)C(=O)NC2=O)cc1` [SB-361058]: 1.153. Same read-out and setting: the same measure for `O=C(Nc1ccc(Oc2ccc3[nH]c(NC(=O)c4ccccc4)nc3c2)cc1)Nc1cc(C(F)(F)F)ccc1F` [GW709042A]: 1.07; for `Cc1ccc(NC(=O)CC2CC2)cc1-c1ccc(C(=O)NCC2CC2)cc1` [GW796920X]: 1.231. For the molecule `Cn1cc(C=C2C(=O)Nc3cccnc32)c2ccccc21` [GW441756X], the “fold change in fluorescence relative to zaprinast alone” value stood at 1.234. The same measure, in the same setting: in the case of `CCSc1ccc(-c2nc3n(c2-c2ccncc2)CCC3)cc1` [SKF-106164-A2] it was 1.019; in that of `CCCCCc1nc2c(N)ncnc2n1CCCCC` [SKF-97255], 0.8987; in that of `COc1cccc(NC(=O)NC2CCN(c3ccnc(Nc4cc(OC)c(OC)c(OC)c4)n3)C2)c1` (stereo not shown) [GSK1379763A], 1.269.

Regarding `Nc1ncc(-c2ccc3nccc(-c4ccncc4)c3c2)cc1S(=O)(=O)N1CCOCC1` [GSK1627798A], the “fold change in fluorescence relative to zaprinast alone” value is on record as 1.041. Still for that read-out and setting: the same measure for `O=c1cc(N2CCOCC2)nc2n(Cc3cccc(C(F)(F)F)c3)ccn12` [GSK2297543A]: 0.8956; for `Cn1cnc2c(N)ncnc21` [SKF-97623]: 1.06.

On to `COC(=O)c1cccc(NC(=O)NC2CCN(c3ccnc(Nc4ccc(F)cc4)n3)C2)c1` (stereo not shown) [GSK1379725A], for which the “fold change in fluorescence relative to zaprinast alone” value stood at 0.2001. Still for that read-out and setting: the same measure for `CNc1nccc(-c2c(-c3ccc(F)cc3)ncn2CCCN2CCOCC2)n1` [SB-222516]: 0.95; for `Cc1ccc(O)cc1Nc1ccnc2cc(-c3ccc(CN4CCCCC4)o3)ccc12` [GW557777X]: 0.8105. As for `Cc1cccc(Nc2ncc(-c3ccccc3)o2)c1` [GW632046X], the “fold change in fluorescence relative to zaprinast alone” value was 1.202. Still for that read-out and setting: the same measure for `CCCC(=O)Nc1[nH]nc2ncccc12` [SB-601436]: 0.9225; for `C[C@@H](Oc1cc(-n2cnc3ccc(-c4ccncc4)cc32)sc1C(N)=O)c1ccccc1Cl` [GSK483724A]: 1.04; for `NC(=O)c1cccc(Nc2nccc(Nc3cccc4[nH]ncc34)n2)c1` [GW782612X]: 1.061. Still for that read-out and setting: in the case of `COC(=O)Nc1nc2ccc(Oc3ccc(NC(=O)Nc4cccc(Cl)c4)cc3)cc2[nH]1` [GW589961A] it was 1.185; in that of `Nc1ncc(-c2cccnc2)c2scc(-c3ccc4c(c3)CCN4C(=O)Cc3ccccc3)c12` [GSK683281A], 1.385; in that of `Cn1nc(-c2ccc(NC(=O)Nc3ccc4ccccc4c3)c(F)c2)c2cnc(NCCN3CCOCC3)nc21` [SB-750250-M], 1.757. In the case of `CS(=O)(=O)CCNCc1ccc(-c2ccc3ncnc(Nc4ccc(OCc5ccccc5)cc4)c3c2)o1` [GW458787A], the “fold change in fluorescence relative to zaprinast alone” value was 0.4223.

With `COc1cccc(C2=C(Nc3cccc(O)c3)C(=O)NC2=O)c1` [SB-390771], the “fold change in fluorescence relative to zaprinast alone” value turned out to be 0.8334.

For the molecule `c1ccc(-c2nc3n(c2-c2ccc4c(c2)OCO4)CCC3)nc1` [SB-400868-A], the “fold change in fluorescence relative to zaprinast alone” value is given as 0.8655. On to `CN1CCC(n2cnc(-c3ccc(F)cc3)c2-c2ccnc(NCCO)n2)CC1` [SB-226879], for which the “fold change in fluorescence relative to zaprinast alone” value turned out to be 1.236. Same read-out and setting: in the case of `Cc1ccccc1CC(=O)N1CCc2cc(-c3cn(C)c4ncnc(N)c34)ccc21` [GSK2603346A] it was 1.278; in that of `COc1cccc(-c2ccc3c(NC(=O)C4CC4)n[nH]c3n2)c1` [SB-710903], 1.151. As to `Cc1ccc(C(=O)NC(C)C)cc1-c1ccc(C(=O)NCC2CC2)cc1` [GW785974X], the “fold change in fluorescence relative to zaprinast alone” value was 1.119. On the same count and under the same terms, the same measure for `COc1cccc(C2=C(Nc3cc(Cl)c(O)c(Cl)c3)C(=O)NC2=O)c1` [SB-390767]: 1.06; for `O=C(Nc1n[nH]c2nc(-c3ccccc3)c(Br)cc12)C1CC1` [SB-708998]: 0.9523; for `COc1cccc(-n2ncc3c(N/N=C/c4ccncc4)ncnc32)c1` [GW784752X]: 1.109.

`COc1cccc(-n2ncc3c(N/N=C/c4ccc(C(=O)NCCN(C)C)cc4)ncnc32)c1` [GW784307A]: the “fold change in fluorescence relative to zaprinast alone” value amounted to 0.4737. On the same count and under the same terms, in the case of `CCc1nccc2c1nc(-c1nonc1N)n2CC` [SB-751148] it was 1.115. The same measure, in the same setting: the same measure for `CNC(=O)c1sc(-n2cnc3cc(OC)c(OC)cc32)cc1OCc1ccccc1C(F)(F)F` [GSK1030061A]: 1.028; for `Nc1nccc(C#Cc2cncnc2Nc2ccc(OCc3cccc(F)c3)c(Cl)c2)n1` [GW799251X]: 1.079; for `Cc1cccc2c(-c3ccncn3)c(-c3ccc(F)cc3)nn12` [GW515532X]: 0.6118. Consider `NS(=O)(=O)c1ccc(NC=C2C(=O)Nc3ccc4ncsc4c32)cc1` [GW589933X], for which the “fold change in fluorescence relative to zaprinast alone” value worked out at 1.196.

On to `CN(C)c1cc2c(Nc3ccc4nc(Cc5ccccc5)[nH]c4c3)ncnc2cn1` [GW301888X], for which the “fold change in fluorescence relative to zaprinast alone” value was 1.125. Same read-out and setting: in the case of `Nc1nc(Nc2ccccc2)cc(-c2ccc3c(N)n[nH]c3c2)n1` [GSK2225749A] it was 1.117. With `CCN(CC)S(=O)(=O)c1ccc(OC)c(Nc2ncc(-c3ccccc3)o2)c1` [GW572401X], the “fold change in fluorescence relative to zaprinast alone” value is on record as 1.034. The same measure, in the same setting: the same measure for `NS(=O)(=O)c1ccc(N/C=C2\C(=O)Nc3ccc4ncsc4c32)cc1` [GW297361X]: 1.167; for `CC(=O)c1c(-c2ccncc2)[nH]c(-c2ccncc2)c1C` [GW493036X]: 1.057; for `COc1ccc(-c2ccc3c(NC(=O)C4CC4)n[nH]c3n2)cc1` [SB-711237]: 1.177. In the case of `COC(=O)c1sc(-n2cnc3cc(OC)c(OC)cc32)cc1OCc1ccccc1C(F)(F)F` [GSK1030058A], the “fold change in fluorescence relative to zaprinast alone” value worked out at 0.7743. On the same count and under the same terms, in the case of `NS(=O)(=O)c1ccc(Nc2cc(-c3cccc(O)c3)n[nH]2)cc1` [GW831090X] it was 1.167. Consider `Cn1cc(-c2cnc(N)c3c(-c4ccc5c(c4)CCN5C(=O)Cc4ccccc4)csc23)cn1` [GSK2593074A], for which the “fold change in fluorescence relative to zaprinast alone” value turned out to be 1.463. For `c1ccc(Cc2nc3ccc(Nc4ncnc5ccccc45)cc3[nH]2)cc1` [GR269666A], the “fold change in fluorescence relative to zaprinast alone” value amounted to 1.257. Turning to `COC(=O)c1cccc(NC(=O)NC2CCN(c3ccnc(Nc4cc(OC)c(OC)c(OC)c4)n3)C2)c1` (stereo not shown) [GSK1379767A], the “fold change in fluorescence relative to zaprinast alone” value is recorded as 1.23. With `C/C(Nc1ccc(S(N)(=O)=O)cc1)=C1/C(=O)Nc2ccccc21` [GW335962X], the “fold change in fluorescence relative to zaprinast alone” value came out at 1.108.
